From the NIST ThermoML archive (doi:10.1016/j.fluid.2010.08.022)

Conditions: 101.33 kPa; for mass density: Vibrating tube method; for speed of sound: Sing-around technique in a fixed-path interferometer; for viscosity: Visco Elite L rheometer

CCCCCCCC/C=C\CCCCCCCC(=O)O.NCCO [2-hydroxyethylammonium oleate]
Conditions	mass density [kg/m3]	speed of sound [m/s]	viscosity [mPa·s]
310.91 K, Liquid crystal of unknown type	928.395	–	–
311.16 K, Liquid crystal of unknown type	928.237	1466.6	–
311.41 K, Liquid crystal of unknown type	928.077	1465.8	–
311.66 K, Liquid crystal of unknown type	927.918	1465	–
311.91 K, Liquid crystal of unknown type	927.76	1464.2	–
312.16 K, Liquid crystal of unknown type	927.599	1463.4	–
312.41 K, Liquid crystal of unknown type	927.441	1462.6	–
312.66 K, Liquid crystal of unknown type	927.283	1461.8	–
312.91 K, Liquid crystal of unknown type	927.122	1461	–
313.16 K, Liquid crystal of unknown type	926.962	1460.2	–
313.41 K, Liquid crystal of unknown type	926.805	1459.4	–
313.66 K, Liquid crystal of unknown type	926.647	1458.6	–
313.91 K, Liquid crystal of unknown type	926.486	1457.8	–
314.16 K, Liquid crystal of unknown type	926.328	1457	–
314.41 K, Liquid crystal of unknown type	926.167	1456.2	–
314.66 K, Liquid crystal of unknown type	926.009	1455.4	–
314.91 K, Liquid crystal of unknown type	925.851	1454.6	–
315.16 K, Liquid crystal of unknown type	925.69	1453.8	–
315.41 K, Liquid crystal of unknown type	925.531	1453	–
315.66 K, Liquid crystal of unknown type	925.372	1452.2	–
315.91 K, Liquid crystal of unknown type	925.214	1451.4	–
316.16 K, Liquid crystal of unknown type	925.054	1450.6	–
316.41 K, Liquid crystal of unknown type	924.895	1449.8	–
316.66 K, Liquid crystal of unknown type	924.735	1449	–
316.91 K, Liquid crystal of unknown type	924.575	1448.2	–
317.16 K, Liquid crystal of unknown type	924.416	1447.4	–
317.41 K, Liquid crystal of unknown type	924.257	1446.6	–
317.66 K, Liquid crystal of unknown type	924.098	1445.8	–
317.91 K, Liquid crystal of unknown type	923.938	1445	–
318.16 K, Liquid crystal of unknown type	923.779	1444.2	–
318.4 K, Liquid crystal of unknown type	923.621	1443.4	–
318.66 K, Liquid crystal of unknown type	923.461	1442.6	–
318.91 K, Liquid crystal of unknown type	923.302	1441.8	–
319.16 K, Liquid crystal of unknown type	923.142	1441	–
319.41 K, Liquid crystal of unknown type	922.982	1440.2	–
319.65 K, Liquid crystal of unknown type	922.821	1439.4	–
319.91 K, Liquid crystal of unknown type	922.663	1438.6	–
320.16 K, Liquid crystal of unknown type	922.502	1437.8	–
320.41 K, Liquid crystal of unknown type	922.343	1437	–
320.66 K, Liquid crystal of unknown type	922.184	1436.2	–
320.91 K, Liquid crystal of unknown type	922.026	1435.5	–
321.16 K, Liquid crystal of unknown type	921.864	1434.7	–
321.41 K, Liquid crystal of unknown type	921.705	1433.9	–
321.66 K, Liquid crystal of unknown type	921.546	1433.1	–
321.91 K, Liquid crystal of unknown type	921.386	1432.3	–
322.15 K, Liquid crystal of unknown type	921.225	1431.5	–
322.41 K, Liquid crystal of unknown type	921.066	1430.8	–
322.66 K, Liquid crystal of unknown type	920.906	1430	–
322.91 K, Liquid crystal of unknown type	920.746	1429.2	–
323.16 K, Liquid crystal of unknown type	920.588	1428.4	–
323.41 K, Liquid crystal of unknown type	920.427	1427.6	–
323.66 K, Liquid crystal of unknown type	920.268	1426.8	–
323.91 K, Liquid crystal of unknown type	920.108	1426	–
324.16 K, Liquid crystal of unknown type	919.948	1425.3	–
324.41 K, Liquid crystal of unknown type	919.788	1424.5	–
324.66 K, Liquid crystal of unknown type	919.629	1423.7	–
324.91 K, Liquid crystal of unknown type	919.469	1422.9	–
325.16 K, Liquid crystal of unknown type	919.309	1422.1	–
325.41 K, Liquid crystal of unknown type	919.149	1421.3	–
325.66 K, Liquid crystal of unknown type	918.989	1420.5	–
325.91 K, Liquid crystal of unknown type	918.828	1419.7	–
326.16 K, Liquid crystal of unknown type	918.669	1419	–
326.41 K, Liquid crystal of unknown type	918.508	1418.2	–
326.66 K, Liquid crystal of unknown type	918.347	1417.4	–
326.91 K, Liquid crystal of unknown type	918.187	1416.6	–
327.16 K, Liquid crystal of unknown type	918.029	1415.8	–
327.41 K, Liquid crystal of unknown type	917.867	1415.1	–
327.66 K, Liquid crystal of unknown type	917.707	1414.3	–
327.91 K, Liquid crystal of unknown type	917.547	1413.5	–
328.16 K, Liquid crystal of unknown type	917.387	1412.7	–
328.41 K, Liquid crystal of unknown type	917.226	1412	–
328.66 K, Liquid crystal of unknown type	917.066	1411.2	–
328.9 K, Liquid crystal of unknown type	916.907	1410.4	–
329.16 K, Liquid crystal of unknown type	916.746	1409.6	–
329.41 K, Liquid crystal of unknown type	916.585	1408.9	–
329.66 K, Liquid crystal of unknown type	916.424	1408.1	–
329.91 K, Liquid crystal of unknown type	916.265	1407.3	–
330.16 K, Liquid crystal of unknown type	916.103	1406.5	–
330.41 K, Liquid crystal of unknown type	915.943	1405.8	–
330.66 K, Liquid crystal of unknown type	915.784	1405	–
330.91 K, Liquid crystal of unknown type	915.622	1404.2	–
331.16 K, Liquid crystal of unknown type	915.461	1403.5	–
331.4 K, Liquid crystal of unknown type	915.3	1402.7	–
331.66 K, Liquid crystal of unknown type	915.14	1401.9	–
331.91 K, Liquid crystal of unknown type	914.98	1401.2	–
332.16 K, Liquid crystal of unknown type	914.818	1400.4	–
332.41 K, Liquid crystal of unknown type	914.658	1399.6	–
332.66 K, Liquid crystal of unknown type	914.496	1398.8	–
332.91 K, Liquid crystal of unknown type	914.336	1398.1	–
333.16 K, Liquid crystal of unknown type	914.175	1397.3	–
333.41 K, Liquid crystal of unknown type	914.015	1396.5	–
333.66 K, Liquid crystal of unknown type	913.853	1395.7	–
333.91 K, Liquid crystal of unknown type	913.692	1395	–
334.16 K, Liquid crystal of unknown type	913.531	1394.2	–
334.41 K, Liquid crystal of unknown type	913.369	1393.4	–
334.66 K, Liquid crystal of unknown type	913.208	1392.6	–
334.91 K, Liquid crystal of unknown type	913.046	1391.9	–
335.16 K, Liquid crystal of unknown type	912.885	1391.1	–
335.4 K, Liquid crystal of unknown type	912.725	1390.3	–
335.66 K, Liquid crystal of unknown type	912.564	1389.6	–
335.91 K, Liquid crystal of unknown type	912.403	1388.8	–
336.16 K, Liquid crystal of unknown type	912.241	1388	–
336.41 K, Liquid crystal of unknown type	912.079	1387.2	–
336.66 K, Liquid crystal of unknown type	911.917	1386.5	–
336.91 K, Liquid crystal of unknown type	911.757	1385.8	–
337.16 K, Liquid crystal of unknown type	911.595	1385	–
337.41 K, Liquid crystal of unknown type	911.432	1384.2	–
337.66 K, Liquid crystal of unknown type	911.272	1383.5	–
337.91 K, Liquid crystal of unknown type	911.11	1382.7	–
338.15 K, Liquid crystal of unknown type	–	–	225.9
338.16 K, Liquid crystal of unknown type	910.95	1381.9	–
338.41 K, Liquid crystal of unknown type	910.787	1381.2	–
338.66 K, Liquid crystal of unknown type	910.626	1380.4	–
338.9 K, Liquid crystal of unknown type	910.464	1379.7	–
339.16 K, Liquid crystal of unknown type	910.301	1378.9	–
339.41 K, Liquid crystal of unknown type	910.142	1378.1	–
339.66 K, Liquid crystal of unknown type	909.978	1377.4	–
339.9 K, Liquid crystal of unknown type	909.815	1376.6	–
340.16 K, Liquid crystal of unknown type	909.655	1375.9	–
340.4 K, Liquid crystal of unknown type	909.492	1375.1	–
340.66 K, Liquid crystal of unknown type	909.33	1374.4	–
340.91 K, Liquid crystal of unknown type	909.169	1373.6	–
341.16 K, Liquid crystal of unknown type	909.006	1372.9	–
341.41 K, Liquid crystal of unknown type	908.843	1372.1	–
341.66 K, Liquid crystal of unknown type	908.682	1371.3	–
341.9 K, Liquid crystal of unknown type	908.521	1370.6	–
342.16 K, Liquid crystal of unknown type	908.356	1369.8	–
342.41 K, Liquid crystal of unknown type	908.195	1369.1	–
342.65 K, Liquid crystal of unknown type	908.033	1368.3	–
342.9 K, Liquid crystal of unknown type	907.872	1367.6	–
343.15 K, Liquid crystal of unknown type	907.717	1366.9	–
348.15 K, Liquid crystal of unknown type	–	–	129.1
353.15 K, Liquid crystal of unknown type	–	–	97.5
358.15 K, Liquid crystal of unknown type	–	–	79.2
368.15 K, Liquid	–	–	50.5
